Data: patent US20070244153A1 (priority 2004, published 2007)

Tests used:
Type in all cases: in vivo
[1] = tested on: Plasmopara viticola; test: Controlling effect against grape downy mildew (leaf disk immersion, 250 ppm); conditions: grape leaf disk immersed 3 hours, 10th day after inoculation, untreated 60 to 70%
Procedure: The developed leaf of grape seedling (breed: Cabernet Sauvignon) grown in 1/2000 a pot was cut and prepared a leaf disk having a diameter of 32 mm. A solution of the compound in acetone was diluted with water to 250 ppm, and the leaf disk was immersed for 3 hours. The disk was taken from the agent solution, subjected to air-drying, and then inoculated by spray with a zoosporangia suspension of Plasmopara viticola. The test disk was incubated at 18° C. for 12 hours in a light-dark light cycle. On the 10th day after inoculation the infected area rate for the leaf disk was examined. Evaluation was carried out by the following criteria. The infected area rate for the untreated groups in the examination was 60 to 70%.

[2] = tested on: Pseudoperonospora cubensis; test: Controlling effect against cucumber downy mildew (spray on cucumber seedlings, 250 ppm); conditions: 250 ppm spray, cucumber seedling 1-leaf stage, 7th day after inoculation; untreated 60 to 80%
Procedure: A solution of the compound in acetone was diluted with water to 250 ppm, and the solution was sprayed to the cucumber seedling (breed: Sagamihangbak, two per plastic pot having a diameter of 7.5 cm) at 1-leaf stage in an amount of 10 mL of the compound/pot. After air-drying, the pot was transferred to a moist chamber provided in the greenhouse, and inoculated by spray with a zoosporic suspension of Pseudoperonospora cubensis. On the 7th day after inoculation the infected area rate for the leaves was examined. Evaluation was carried out by the following criteria.
The infected area rate for untreated groups in the examination was 60 to 80%.

[3] = tested on: Phytophthora infestans; conditions: 250 ppm spray, tomato seedling 4-leaf stage, 4th day after inoculation; untreated not less than 60%

## Cc1ccc(C(=O)NC[C@@H](NC(=O)C(NC(=O)OC(C)(C)C)C2CCOC2)C(C)C)cc1 (mixture of isomers) [Compound No. 69, N-[2-methyl-1-(S)-[[(4-methylbenzoyl)amino]methyl]propyl]2-(RS)-[(1,1-dimethylethyloxycarbonyl)amino]-2-(tetrahydrofuran-3-yl)acetamide]
[1]
  Effect: controlling effect against grape downy mildew (infected area rate): B (the infected area rate of 5% to less than 50%)
[2]
  Effect: controlling effect against cucumber downy mildew (infected area rate): A (the infected area rate of less than 5%)
[3]
  Effect: controlling effect against tomato late blight (infected area rate): A (Infected area rate of less than 5%)

## Cc1ccc(C(=O)NCC(NC(=O)[C@@H](NC(=O)OC(C)C)C(C)C)C(C)C)cc1 (mixture of isomers) [Compound No. 151, N-[2-methyl-1-(RS)-[[(4-methylbenzoyl)amino]methyl]propyl]3-methyl-2-(S)-[(1-methylethyloxycarbonyl)amino]butyramide]
[2]
  Effect: controlling effect against cucumber downy mildew (infected area rate): B (the infected area rate of 5% to less than 50%)
[3]
  Effect: controlling effect against tomato late blight (infected area rate): A (Infected area rate of less than 5%)

## CC(CNC(=O)c1cc2ccccc2o1)NC(=O)[C@@H](NC(=O)OC(C)(C)C)C(C)C (mixture of isomers) [Compound No. 652, N-[2-(RS)-[[(benzofuran-2-carbonyl)amino]-1-methyl]ethyl][3-methyl-2-(S)-[N-(1,1-dimethylethyloxycarbonyl)amino]]butyramide]
[1]
  Effect: controlling effect against grape downy mildew (infected area rate): B (the infected area rate of 5% to less than 50%)
[2]
  Effect: controlling effect against cucumber downy mildew (infected area rate): A (the infected area rate of less than 5%)
[3]
  Effect: controlling effect against tomato late blight (infected area rate): A (Infected area rate of less than 5%)

## CC(C)OC(=O)N[C@H](C(=O)N[C@H](CNC(=O)C1COc2ccccc2O1)C(C)C)C(C)C (mixture of isomers) [Compound No. 899, N-[2-methyl-1-(S)-[[[(1,4-benzodioxane)-2-(RS)-carbonyl]amino]methyl]propyl][3-methyl-2-(S)-[N-(1-methylethyloxycarbonyl)amino]]butyramide]
[1]
  Effect: controlling effect against grape downy mildew (infected area rate): B (the infected area rate of 5% to less than 50%)
[2]
  Effect: controlling effect against cucumber downy mildew (infected area rate): A (the infected area rate of less than 5%)
[3]
  Effect: controlling effect against tomato late blight (infected area rate): A (Infected area rate of less than 5%)

## Cc1ccc(C(=O)NC[C@@H](NC(=O)[C@@H](NC(=O)OC(C)(C)C)c2ccccc2)C(C)C)cc1 [Compound No. 60, N-[2-methyl-1-(S)-[[(4-methylbenzoly)amino]methyl]propyl]2-(S)-[(1,1-dimethylethyloxycarbonyl)amino]-2-phenyl acetamide]
[3]
  Effect: controlling effect against tomato late blight (infected area rate): B (Infected area rate of 5% to less than 50%)

## Cc1ccccc1C(=O)NC[C@@H](NC(=O)[C@@H](NC(=O)OC(C)C)C(C)C)C(C)C [Compound No. 143, N-[2-methyl-1-(S)-[[(2-methylbenzoyl)amino]methyl]propyl]3-methyl-2-(S)-[(1-methylethyloxycarbonyl)amino]butyramide]
[2]
  Effect: controlling effect against cucumber downy mildew (infected area rate): B (the infected area rate of 5% to less than 50%)
[3]
  Effect: controlling effect against tomato late blight (infected area rate): A (Infected area rate of less than 5%)

## CC(C)COC(=O)N[C@H](C(=O)N[C@H](CNC(=O)c1ccc(Cl)cc1)C(C)C)C(C)C [Compound No. 205, N-[1-(S)-[[(4-chlorobenzoyl)amino]methyl]-2-methylpropyl]3-methyl-2-(S)-[(2-methylpropyloxycarbonyl)amino]butyramide]
[1]
  Effect: controlling effect against grape downy mildew (infected area rate): B (the infected area rate of 5% to less than 50%)
[2]
  Effect: controlling effect against cucumber downy mildew (infected area rate): A (the infected area rate of less than 5%)
[3]
  Effect: controlling effect against tomato late blight (infected area rate): A (Infected area rate of less than 5%)

## Cc1ccc(C(=O)N[C@@H](CNC(=O)[C@@H](NC(=O)OCC(C)C)C(C)C)C(C)C)cc1 [Compound No. 274, N-[3-methyl-2-(R)-[(4-methylbenzoyl)amino]butyl]3-methyl-2-(S)-[(2-methylpropyloxycarbonyl)amino]butyramide]
[2]
  Effect: controlling effect against cucumber downy mildew (infected area rate): B (the infected area rate of 5% to less than 50%)
[3]
  Effect: controlling effect against tomato late blight (infected area rate): A (Infected area rate of less than 5%)

## Cc1ccc(C(=O)N[C@@H](CNC(=O)[C@@H](NC(=O)OCc2ccccc2)C(C)C)C(C)C)cc1 [Compound No. 276, N-[3-methyl-2-(R)-[(4-methylbenzoyl)amino]butyl]2-(S)-[(benzyloxycarbonyl)amino]-3-methylbutyramide]
[3]
  Effect: controlling effect against tomato late blight (infected area rate): B (Infected area rate of 5% to less than 50%)

## Cc1ccc(C(=O)N[C@H](CNC(=O)[C@@H](NC(=O)OCc2ccccc2)C(C)C)C(C)C)cc1 [Compound No. 281, N-[3-methyl-2-(S)-[(4-methylbenzoyl)amino]butyl]2-(S)-[(benzyloxycarbonyl)amino]-3-methylbutyramide]
[2]
  Effect: controlling effect against cucumber downy mildew (infected area rate): B (the infected area rate of 5% to less than 50%)
[3]
  Effect: controlling effect against tomato late blight (infected area rate): B (Infected area rate of 5% to less than 50%)

## CC[C@H](C)[C@@H](CNC(=O)c1ccc(C)cc1)NC(=O)[C@@H](NC(=O)OC)C(C)C [Compound No. 306, N-[2-(S)-methyl-1-(S)-[[(4-methylbenzoyl)amino]methyl]butyl]3-methyl-2-(S)-[(methyloxycarbonyl)amino]butyramide]
[1]
  Effect: controlling effect against grape downy mildew (infected area rate): A (the infected area rate of less than 5%)
[2]
  Effect: controlling effect against cucumber downy mildew (infected area rate): A (the infected area rate of less than 5%)
[3]
  Effect: controlling effect against tomato late blight (infected area rate): A (Infected area rate of less than 5%)

## CC(C)OC(=O)N[C@H](C(=O)NC[C@@H](NC(=O)c1cc2ccccc2o1)C(C)C)C(C)C [Compound No. 675, N-[[2-(S)-[(benzofuran-2-carbonyl)amino]-3-methyl]butyl][2-(S)-[(1-methylethyloxycarbonyl)amino]-3-methyl]butyramide]
[2]
  Effect: controlling effect against cucumber downy mildew (infected area rate): B (the infected area rate of 5% to less than 50%)
[3]
  Effect: controlling effect against tomato late blight (infected area rate): A (Infected area rate of less than 5%)

## CC(C)[C@H](NC(=O)OCc1ccccc1)C(=O)NC[C@@H](NC(=O)c1cc2ccccc2o1)C(C)C [Compound No. 678, N-[3-methyl-2-(S)-[(benzofuran-2-carbonyl)amino]butyl]2-(S)-[(benzyloxycarbonyl)amino]-3-methylbutyramide]
[1]
  Effect: controlling effect against grape downy mildew (infected area rate): B (the infected area rate of 5% to less than 50%)
[2]
  Effect: controlling effect against cucumber downy mildew (infected area rate): A (the infected area rate of less than 5%)
[3]
  Effect: controlling effect against tomato late blight (infected area rate): B (Infected area rate of 5% to less than 50%)

## CCOC(=O)N[C@H](C(=O)N[C@H](CNC(=O)c1cc2ccccc2o1)C(C)(C)C)C(C)C [Compound No. 714, N-[1-(S)-[[(benzofuran-2-carbonyl)amino]methyl)-2,2-dimethylpropyl][3-methyl-2-(S)-[N-(ethyloxycarbonyl)amino]]butyramide]
[1]
  Effect: controlling effect against grape downy mildew (infected area rate): A (the infected area rate of less than 5%)
[2]
  Effect: controlling effect against cucumber downy mildew (infected area rate): A (the infected area rate of less than 5%)
[3]
  Effect: controlling effect against tomato late blight (infected area rate): A (Infected area rate of less than 5%)

## CCOC(=O)N[C@H](C(=O)N[C@H](CNC(=O)c1cc2ccccc2o1)C(C)C)C(C)C [Compound No. 772, N-[2-methyl-1-(S)-[[(benzofuran-2-carbonyl)amino]methyl]propyl][3-methyl-2-(S)-[N-(ethyloxycarbonyl)amino]]butyramide]
[1]
  Effect: controlling effect against grape downy mildew (infected area rate): A (the infected area rate of less than 5%)
[2]
  Effect: controlling effect against cucumber downy mildew (infected area rate): A (the infected area rate of less than 5%)
[3]
  Effect: controlling effect against tomato late blight (infected area rate): A (Infected area rate of less than 5%)

## CC(C)OC(=O)N[C@H](C(=O)N[C@H](CNC(=O)c1cc2ccccc2o1)C(C)C)C(C)C [Compound No. 775, N-[2-methyl-1-(S)-[[(benzofuran-2-carbonyl)amino]methyl]propyl][3-methyl-2-(S)-[N-(1-methylethyloxycarbonyl)amino]]butyramide]
[1]
  Effect: controlling effect against grape downy mildew (infected area rate): A (the infected area rate of less than 5%)
[2]
  Effect: controlling effect against cucumber downy mildew (infected area rate): A (the infected area rate of less than 5%)
[3]
  Effect: controlling effect against tomato late blight (infected area rate): A (Infected area rate of less than 5%)

## CC(C)[C@H](NC(=O)OCC1CCCO1)C(=O)N[C@H](CNC(=O)c1cc2ccccc2o1)C(C)C (stereo partly drawn) [Compound No. 786, N-[1-(S)-[[(benzofuran-2-carbonyl)amino]methyl]-2-methylpropyl]3-methyl-2-(S)-[[(tetrahydrofuran-2-methyl)oxycarbonyl]amino]butyramide]
[2]
  Effect: controlling effect against cucumber downy mildew (infected area rate): A (the infected area rate of less than 5%)
[3]
  Effect: controlling effect against tomato late blight (infected area rate): A (Infected area rate of less than 5%)
